Data on two molecules can be found in patent publication US20250161477A1, “NOVEL METHODS OF THERAPY” (BIVICTRIX LIMITED, priority 2022, published 2025).

The test system of experiment [1] is Human CD34+ progenitor cells. As to the kind of experiment: Colony forming unit assay: differentiation of healthy CD34+ progenitor cells to myeloid CD33+ cells.
Protocol: Methocult was thawed at 4° C. overnight. Methocult was shaken and allowed to stand at room temperature until all the bubbles had dispersed and aliquoted into 3 mL aliquots. A 6-point dose titration was prepared for each antibody in PBS to achieve the following final concentrations: 10, 3, 1, 0.1, 0.01 and 0 nM. Enough of each dilution was prepared to test activity across duplicate wells. Each titration was pipetted into a 1.5 mL tube. CD34+ cells were thawed at 37° C. and suspended in 2% FBS IMDM. 300 μL of suspension containing 3000 CD34+ cells were pipetted into each 1.5 mL tube containing antibody titration and the solution gently was mixed by pipetting. […] The total volume of antibody dilution added to the cells was 30 μL in all conditions. The cell suspension/conjugate mix was pipetted into a 3 mL aliquot of Methocult, vortexed for 5 seconds and allowed to stand at room temperature until the bubbles had disappeared. Using an 18-gauge blunt needle and 6 mL syringe, 1 mL of cell/conjugate/Methocult mix was transferred to a well of a Smart dish and each condition was tested across duplicate wells. Each plate was rocked to ensure the Methocult covered the entire well surface evenly and then placed in a 37° C., 5% CO2 incubator. The colonies were counted on day 9 and day 14 and the data plotted in Excel.
The next experiment concerns the target human CD56 (human) (UniProt P13591). As to the kind of experiment: cell-based or functional assay.
The next experiment addresses human CD33 (human) (UniProt P20138). The experiment can be described thus: cell-based or functional assay.

Bounds are passed on as bounds.

Chain of human CD33 (human) (P20138 18-364 R69G limits assumed): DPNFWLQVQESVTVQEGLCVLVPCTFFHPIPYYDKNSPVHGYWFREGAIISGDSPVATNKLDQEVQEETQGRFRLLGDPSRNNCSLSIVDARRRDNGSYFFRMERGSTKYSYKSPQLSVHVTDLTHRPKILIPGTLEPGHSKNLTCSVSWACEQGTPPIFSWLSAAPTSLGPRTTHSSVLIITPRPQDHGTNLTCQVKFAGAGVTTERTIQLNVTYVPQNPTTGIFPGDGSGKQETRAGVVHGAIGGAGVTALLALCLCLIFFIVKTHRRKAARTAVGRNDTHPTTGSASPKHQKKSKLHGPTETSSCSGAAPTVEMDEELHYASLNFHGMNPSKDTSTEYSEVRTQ
Chain of human CD56 (human) (P13591 other isoform, or with tags, fused parts or gaps limits assumed): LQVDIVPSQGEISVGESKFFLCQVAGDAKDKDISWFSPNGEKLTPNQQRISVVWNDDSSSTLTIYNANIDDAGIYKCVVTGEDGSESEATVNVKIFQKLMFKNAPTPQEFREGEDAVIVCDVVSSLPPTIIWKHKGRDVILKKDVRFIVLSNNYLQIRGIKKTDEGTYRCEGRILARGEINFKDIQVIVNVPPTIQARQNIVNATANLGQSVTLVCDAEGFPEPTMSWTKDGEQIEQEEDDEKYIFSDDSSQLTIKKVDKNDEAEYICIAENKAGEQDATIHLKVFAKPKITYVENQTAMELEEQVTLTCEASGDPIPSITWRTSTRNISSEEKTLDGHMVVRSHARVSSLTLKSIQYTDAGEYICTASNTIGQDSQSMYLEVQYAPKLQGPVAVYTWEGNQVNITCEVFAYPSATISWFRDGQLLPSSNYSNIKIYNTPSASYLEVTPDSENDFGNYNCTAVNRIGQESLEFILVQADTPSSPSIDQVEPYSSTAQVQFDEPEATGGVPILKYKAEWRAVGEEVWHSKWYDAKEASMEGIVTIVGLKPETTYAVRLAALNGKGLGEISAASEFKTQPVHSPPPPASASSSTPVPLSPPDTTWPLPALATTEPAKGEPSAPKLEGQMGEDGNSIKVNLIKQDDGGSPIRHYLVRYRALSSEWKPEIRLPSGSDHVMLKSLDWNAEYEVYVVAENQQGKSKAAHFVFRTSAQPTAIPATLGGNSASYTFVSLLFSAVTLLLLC

Consider “GEMTUZUMAB: Gemtuzumab (In House), CD33 monospecific antibody, unconjugated”, for which the “Av. % of Colonies Surviving at 10 nM vs Control” value in experiment [1] (9 days of incubation, Experiment 1) is given as 102.33%; in experiment [1] (9 days of incubation, Experiment 2) it was 113.3%; in experiment [1] (14 days of incubation, Experiment 1) it was 100.5%; in experiment [1] (14 days of incubation, Experiment 2), 82.8%.

B1: BVX04-a0094-AB4A-1 (CD33xCD56 Bi-Fab ADC) (bispecific antibody, not shown: large carriers)
heavy 1: EVQLVQSGAEVKKPGSSVKVSCKASGYTITDSNIHWVRQAPGQSLEWIGYIYPYNGGTDYNQKFKNRATLTVDNPTNTAYMELSSLRSEDTAFYYCVNGNPWLAYWGQGTLVTVSS
light 1: DIQLTQSPSTLSASVGDRVTIICRASESLDNYGIRFLTWFQQKPGKAPKLLMYAASNQGSGVPSRFSGSGSGTEFTLTISSLQPDDFATYYCQQTKEVPWSFGQGTKLEIK
heavy 2: EVQLVQSGAEVKKPGSSVKVSCKASGGTFTGYYMHWVRQAPGQGLEWMGWINPNSGGTNYAQKFQGRVTMTRDTSISTAYMELSRLRSDDTAVYYCARDLSSGYSGYFDYWGQGTLVTVSS
light 2: DVVMTQSPLSLPVTPGEPASISCRSSQSLLHSNGYNFLDWYLQKPGQSPQLLIYLGSNRASGVPDRFSGSGSGTDFTLKISRVEADDVGVYYCMQSLQTPWTFGHGTKVEIK
B1: in the experiment with human CD56 (human), the Mean IC50, cell kill assay (WST-1, 96 h) on KASUMI-3 cells (CD33+/CD56+) came out at 0.061 nM and the Mean IC50, cell kill assay (WST-1, 96 h) on KE-37 cells (CD33-/CD56+) is above 30 nM. In the experiment with human CD33 (human), this molecule displayed a Mean IC50, cell kill assay (WST-1, 96 h) on KASUMI-3 cells (CD33+/CD56+) of 0.061 nM and a Mean IC50, cell kill assay (WST-1, 96 h) on SET-2 cells (CD33+/CD56-) above 30 nM.
